The values that follow are results of earlier work, collected in US20100172990A1, “BIOCOMPATIBLE MICROGELS AND APPLICATIONS THEREOF” (UNIVERSIDAD DEL PAIS VASCO, priority 2007, published 2010).

Structures are written as SMILES.

The conditions of the data set: at 55° C.

On to `C=CN1CCCCCC1=O` [VCL, N-vinylcaprolactam], for which the solubility in water entry is reported as “approximately 88 g/L”.
